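1) Cells in 96-well plates. 2) Compound, 48 h, 5 concentrations. 3) Linear interpolation between surrounding doses. 4) Unreached endpoint = highest concentration. GI50 marks 50% less growth. TGI: concentration producing complete growth inhibition.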
Columns and labels:
Assay in all cases: NCI tumour cell line growth inhibition, 48 h
HS 578T breast = tested on: HS 578T breast
UO-31 renal = tested on: UO-31 renal
M14 melanoma = tested on: M14 melanoma
HOP-92 NSCLC = tested on: HOP-92 NSCLC
NCI-H23 lung = tested on: NCI-H23 lung
EKVX NSCLC = tested on: EKVX NSCLC
CAKI-1 renal = tested on: CAKI-1 renal
MCF7 breast = tested on: MCF7 breast
T-47D breast = tested on: T-47D breast
UACC-257 melanoma = tested on: UACC-257 melanoma
HCT-116 colon = tested on: HCT-116 colon
SK-OV-3 ovarian = tested on: SK-OV-3 ovarian
SK-MEL-5 melanoma = tested on: SK-MEL-5 melanoma
NCI-H226 lung = tested on: NCI-H226 lung
SK-MEL-2 melanoma = tested on: SK-MEL-2 melanoma
HCC-2998 colon = tested on: HCC-2998 colon
RXF 393 renal = tested on: RXF 393 renal
NCI/ADR-RES ovarian = tested on: NCI/ADR-RES ovarian
HCT-15 colon = tested on: HCT-15 colon
SF-539 CNS = tested on: SF-539 CNS
MOLT-4 leukemia = tested on: MOLT-4 leukemia
OVCAR-5 ovarian = tested on: OVCAR-5 ovarian
K-562 leukemia = tested on: K-562 leukemia
A549 NSCLC = tested on: A549 NSCLC
PC-3 prostate = tested on: PC-3 prostate
A498 renal = tested on: A498 renal
SN12C renal = tested on: SN12C renal
MDA-MB-231 breast = tested on: MDA-MB-231 breast
SW-620 colon = tested on: SW-620 colon
HT29 colon = tested on: HT29 colon
SK-MEL-28 melanoma = tested on: SK-MEL-28 melanoma
SNB-19 CNS = tested on: SNB-19 CNS
IGROV1 ovarian = tested on: IGROV1 ovarian
RPMI-8226 leukemia = tested on: RPMI-8226 leukemia
NCI-H522 lung = tested on: NCI-H522 lung
MALME-3M melanoma = tested on: MALME-3M melanoma
SF-268 CNS = tested on: SF-268 CNS
KM12 colon = tested on: KM12 colon
COLO 205 colon = tested on: COLO 205 colon
ACHN renal = tested on: ACHN renal
SR leukemia = tested on: SR leukemia
TK-10 renal = tested on: TK-10 renal
HL-60(TB) leukemia = tested on: HL-60(TB) leukemia
CCRF-CEM leukemia = tested on: CCRF-CEM leukemia
OVCAR-3 ovarian = tested on: OVCAR-3 ovarian
U251 CNS = tested on: U251 CNS
SNB-75 CNS = tested on: SNB-75 CNS
DU-145 prostate = tested on: DU-145 prostate

Structure (SMILES): Oc1[nH]c2ccccc2c1/C=c1/cc2c(c(-c3ccc(F)cc3)n1)=Nc1ccccc1-2
- GI50 (HS 578T breast): 528 nM
- TGI (HS 578T breast): 3280 nM
- GI50 (UO-31 renal): 353 nM
- TGI (UO-31 renal): 2210 nM
- GI50 (M14 melanoma): 315 nM
- TGI (M14 melanoma): 1410 nM
- GI50 (HOP-92 NSCLC): 162 nM
- TGI (HOP-92 NSCLC): 981 nM
- GI50 (NCI-H23 lung): 1160 nM
- TGI (NCI-H23 lung): 3110 nM
- GI50 (EKVX NSCLC): 3010 nM
- TGI (EKVX NSCLC): 72700 nM
- GI50 (CAKI-1 renal): 1290 nM
- TGI (CAKI-1 renal): 5050 nM
- GI50 (MCF7 breast): 817 nM
- TGI (MCF7 breast): 2570 nM
- GI50 (T-47D breast): 501 nM
- TGI (T-47D breast): 2130 nM
- GI50 (UACC-257 melanoma): 714 nM
- TGI (UACC-257 melanoma): 2880 nM
- GI50 (HCT-116 colon): 1010 nM
- TGI (HCT-116 colon): 2240 nM
- GI50 (SK-OV-3 ovarian): 848 nM
- TGI (SK-OV-3 ovarian): 3150 nM
- GI50 (SK-MEL-5 melanoma): 1410 nM
- TGI (SK-MEL-5 melanoma): 3060 nM
- GI50 (NCI-H226 lung): 1520 nM
- TGI (NCI-H226 lung): 10700 nM
- GI50 (SK-MEL-2 melanoma): 327 nM
- TGI (SK-MEL-2 melanoma): 1340 nM
- GI50 (HCC-2998 colon): 726 nM
- TGI (HCC-2998 colon): 2160 nM
- GI50 (RXF 393 renal): 634 nM
- TGI (RXF 393 renal): 1960 nM
- GI50 (NCI/ADR-RES ovarian): 267 nM
- TGI (NCI/ADR-RES ovarian): 1250 nM
- GI50 (HCT-15 colon): 735 nM
- TGI (HCT-15 colon): 2430 nM
- GI50 (SF-539 CNS): 477 nM
- TGI (SF-539 CNS): 1810 nM
- GI50 (MOLT-4 leukemia): 2170 nM
- TGI (MOLT-4 leukemia): 5410 nM
- GI50 (OVCAR-5 ovarian): 1360 nM
- TGI (OVCAR-5 ovarian): 4390 nM
- GI50 (K-562 leukemia): 435 nM
- TGI (K-562 leukemia): 3550 nM
- GI50 (A549 NSCLC): 815 nM
- TGI (A549 NSCLC): 2280 nM
- GI50 (PC-3 prostate): 317 nM
- TGI (PC-3 prostate): 1880 nM
- GI50 (A498 renal): 309 nM
- TGI (A498 renal): 1850 nM
- GI50 (SN12C renal): 1380 nM
- TGI (SN12C renal): 3880 nM
- GI50 (MDA-MB-231 breast): 609 nM
- TGI (MDA-MB-231 breast): 2390 nM
- GI50 (SW-620 colon): 438 nM
- TGI (SW-620 colon): 2430 nM
- GI50 (HT29 colon): 384 nM
- TGI (HT29 colon): 1430 nM
- GI50 (SK-MEL-28 melanoma): 777 nM
- TGI (SK-MEL-28 melanoma): 2470 nM
- GI50 (SNB-19 CNS): 1430 nM
- TGI (SNB-19 CNS): 32600 nM
- GI50 (IGROV1 ovarian): 554 nM
- TGI (IGROV1 ovarian): 1930 nM
- GI50 (RPMI-8226 leukemia): 406 nM
- TGI (RPMI-8226 leukemia): 2030 nM
- GI50 (NCI-H522 lung): 218 nM
- TGI (NCI-H522 lung): 990 nM
- GI50 (MALME-3M melanoma): 843 nM
- TGI (MALME-3M melanoma): 2260 nM
- GI50 (SF-268 CNS): 1010 nM
- TGI (SF-268 CNS): 9260 nM
- GI50 (KM12 colon): 363 nM
- TGI (KM12 colon): 1870 nM
- GI50 (COLO 205 colon): 316 nM
- TGI (COLO 205 colon): 1270 nM
- GI50 (ACHN renal): 1120 nM
- TGI (ACHN renal): 2540 nM
- GI50 (SR leukemia): 306 nM
- TGI (SR leukemia): 2490 nM
- GI50 (TK-10 renal): 1440 nM
- TGI (TK-10 renal): 3710 nM
- GI50 (HL-60(TB) leukemia): 282 nM
- TGI (HL-60(TB) leukemia): 994 nM
- GI50 (CCRF-CEM leukemia): 648 nM
- TGI (CCRF-CEM leukemia): 3250 nM
- GI50 (OVCAR-3 ovarian): 233 nM
- TGI (OVCAR-3 ovarian): 591 nM
- GI50 (U251 CNS): 940 nM
- TGI (U251 CNS): 2170 nM
- GI50 (SNB-75 CNS): 227 nM
- TGI (SNB-75 CNS): 1270 nM
- GI50 (DU-145 prostate): 422 nM
- TGI (DU-145 prostate): 2030 nM

— PubChem BioAssay (NCI)
